Series [1] has as its target T1, human TLR7 (Homo sapiens, UniProt Q9NYK1).
T1 construct: host or cells: HEK293 (HEK-Blue hTLR7)
T1 sequence (Q9NYK1 27-1049): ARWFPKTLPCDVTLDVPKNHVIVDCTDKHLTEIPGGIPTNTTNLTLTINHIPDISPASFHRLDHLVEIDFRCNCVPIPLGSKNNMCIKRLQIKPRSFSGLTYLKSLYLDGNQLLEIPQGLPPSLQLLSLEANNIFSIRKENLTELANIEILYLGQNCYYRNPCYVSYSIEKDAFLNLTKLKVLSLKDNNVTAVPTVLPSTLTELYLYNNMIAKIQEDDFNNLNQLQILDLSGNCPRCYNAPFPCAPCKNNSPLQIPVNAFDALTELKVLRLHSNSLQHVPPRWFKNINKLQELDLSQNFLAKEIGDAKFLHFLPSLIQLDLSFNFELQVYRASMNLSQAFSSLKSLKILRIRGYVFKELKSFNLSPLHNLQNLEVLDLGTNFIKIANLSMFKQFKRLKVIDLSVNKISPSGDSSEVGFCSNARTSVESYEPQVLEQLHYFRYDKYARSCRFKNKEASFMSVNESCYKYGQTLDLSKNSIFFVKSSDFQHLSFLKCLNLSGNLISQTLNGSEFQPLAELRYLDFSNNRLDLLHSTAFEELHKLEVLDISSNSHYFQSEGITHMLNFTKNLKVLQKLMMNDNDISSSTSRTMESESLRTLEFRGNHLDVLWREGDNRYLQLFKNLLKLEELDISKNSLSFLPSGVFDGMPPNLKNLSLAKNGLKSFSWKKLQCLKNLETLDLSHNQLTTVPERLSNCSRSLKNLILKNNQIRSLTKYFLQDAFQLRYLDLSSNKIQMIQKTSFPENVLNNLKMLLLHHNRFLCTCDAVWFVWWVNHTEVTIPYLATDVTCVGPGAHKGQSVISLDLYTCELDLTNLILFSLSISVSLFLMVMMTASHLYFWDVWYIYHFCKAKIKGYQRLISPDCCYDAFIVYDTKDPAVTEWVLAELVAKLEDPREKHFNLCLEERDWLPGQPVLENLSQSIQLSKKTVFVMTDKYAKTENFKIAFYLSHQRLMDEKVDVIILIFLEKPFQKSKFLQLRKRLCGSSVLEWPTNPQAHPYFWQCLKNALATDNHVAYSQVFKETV
The series can be described thus: HEK293-Blue-hTLR-7 cells assay (SEAP reporter, R848 stimulation). It is filed as cell-based. To be noted: HEK293-Blue-hTLR7 cells, R848, 20 hrs; read-out: HEK/hTLR7 IC50. The essentials: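 HEK293-Blue-hTLR7 cells (NF-κB/AP-1-driven SEAP reporter) were stimulated with R848 alongside serially diluted compound at 1% final DMSO for 20 h at 37 °C. Supernatant SEAP was then developed with QUANTI-Blue for 2 h at 37 °C and absorbance read at 620–655 nm; antagonism is measured as reduced reporter signal.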

The target in series [2] is T2, CYP2D6 (Homo sapiens, UniProt P10635).
T2 construct: tissue BD-Gentest 452117; host or cells: human liver microsomes
Briefly: CYP inhibition assay in human liver microsome, CYP2D6. It is filed as in vitro ADME. Conditions: human, human liver microsomes, probe dextromethorphan 5 μM, substrate dextromethorphan 5 μM, second value of 2C9/2D6/3A4. The method, boiled down:
(§1)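 Pooled human liver microsomes with a substrate for each CYP were incubated with compound at 37 °C after NADPH addition, for 5 min (CYP2D6: 10 min), then quenched with acetonitrile containing labelled metabolite standards. Metabolite/internal-standard peak area ratios were measured by RapidFire MS/MS. % inhibition was scaled between DMSO and standard-inhibitor controls.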
A general note: Microsomes from liver hold many membrane-bound enzymes, among them those of drug oxidation.

The target of series [3] is T3, CYP2C9 (Homo sapiens, UniProt P11712).
T3 construct: tissue BD-Gentest 452117; host or cells: human liver microsomes
Briefly: CYP inhibition assay in human liver microsome, CYP2C9. It is filed as in vitro ADME. To be noted: human, human liver microsomes, probe diclofenac 5 μM, substrate diclofenac 5 μM, first value of 2C9/2D6/3A4. The method, boiled down: as §1

T2 sequence (P10635 whole entry): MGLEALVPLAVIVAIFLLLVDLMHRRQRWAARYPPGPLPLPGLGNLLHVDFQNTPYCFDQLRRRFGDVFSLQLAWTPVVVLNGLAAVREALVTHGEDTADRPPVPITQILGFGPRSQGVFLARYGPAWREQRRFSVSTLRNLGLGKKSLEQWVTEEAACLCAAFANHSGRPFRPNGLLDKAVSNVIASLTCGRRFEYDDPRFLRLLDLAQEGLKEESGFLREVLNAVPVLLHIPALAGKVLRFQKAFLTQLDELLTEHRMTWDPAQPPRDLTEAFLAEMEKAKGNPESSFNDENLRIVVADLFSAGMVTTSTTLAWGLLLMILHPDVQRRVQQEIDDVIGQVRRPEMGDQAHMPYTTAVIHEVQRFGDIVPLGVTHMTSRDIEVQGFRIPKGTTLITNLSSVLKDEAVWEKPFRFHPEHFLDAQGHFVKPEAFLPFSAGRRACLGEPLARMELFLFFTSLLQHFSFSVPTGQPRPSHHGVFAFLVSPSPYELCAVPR
T3 sequence (P11712 whole entry): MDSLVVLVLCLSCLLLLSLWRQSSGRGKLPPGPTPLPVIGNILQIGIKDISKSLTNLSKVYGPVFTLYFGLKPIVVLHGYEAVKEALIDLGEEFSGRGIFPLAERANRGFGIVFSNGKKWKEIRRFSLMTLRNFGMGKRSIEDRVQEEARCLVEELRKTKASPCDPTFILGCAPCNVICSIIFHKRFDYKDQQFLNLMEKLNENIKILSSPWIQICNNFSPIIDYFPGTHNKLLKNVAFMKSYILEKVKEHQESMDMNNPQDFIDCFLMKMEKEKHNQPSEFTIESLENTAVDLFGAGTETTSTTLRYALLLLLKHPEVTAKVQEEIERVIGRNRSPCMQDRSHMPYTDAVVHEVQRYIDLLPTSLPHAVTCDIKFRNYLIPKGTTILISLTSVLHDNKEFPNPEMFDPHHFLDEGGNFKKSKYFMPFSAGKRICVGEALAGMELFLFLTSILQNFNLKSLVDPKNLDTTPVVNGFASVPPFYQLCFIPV

As to `C[C@@H]1CN(c2ccc(C#N)c3ncccc23)C[C@H](CN2CCN(c3ccnc(N4CCN(C)CC4)n3)CC2)O1` [Example 22, 5-((2R,6S)-2-methyl-6-((4-(2-(4-methylpiperazin-1-yl)pyrimidin-4-yl)piperazin-1-yl)methyl)morpholino)quinoline-8-carbonitrile], the IC50 in series [1] was determined as 10 nM. Moreover, the inhibition (usually the drop in the measured response relative to a control, in per cent) at 10 min, 10 µM in series [2] is 2%. For the same compound, the inhibition at 5 min, 10 µM in series [3] was found to be 20%.

For `COC1CN(c2ccc(N3CCN(C[C@H]4CN(c5ccc(C#N)c6ncccc56)C[C@@H](C)O4)CC3)cn2)CC1N` (stereo partly drawn) [Example 43, 5-[(2S,6R)-2-[[4-[6-(3-amino-4-methoxy-pyrrolidin-1-yl)-3-pyridyl]piperazin-1-yl]methyl]-6-methyl-morpholin-4-yl]quinoline-8-carbonitrile], in series [1], the IC50 was found to be 22 nM. The inhibition at 10 min, 10 µM in series [2] was -11%. Further, the inhibition at 5 min, 10 µM in series [3] amounted to 2.5%.

Regarding `COC1CNC[C@H]1Nc1cccc(N2CCN(C[C@H]3CN(c4ccc(C#N)c5ncccc45)C[C@@H](C)O3)CC2)n1` (stereo in doubt) [Example 39, 5-[(2S,6R)-2-[[4-[6-[[(3R,4R)-4-methoxypyrrolidin-3-yl]amino]-2-pyridyl]piperazin-1-yl]methyl]-6-methyl-morpholin-4-yl]quinoline-8-carbonitrile], the IC50 in series [1] is 51 nM. Also, the inhibition at 10 min, 10 µM in series [2] was -4%. Further, the inhibition at 5 min, 10 µM in series [3] was found to be 23%.

`C[C@@H]1CN(c2ccc(C#N)n3ncc(F)c23)C[C@H](CN2CCN(c3ccc(N4CC5(CN(C)C5)C4)nc3)CC2)O1` [Example 170, 3-fluoro-4-[(2R,6S)-2-methyl-6-[[4-[6-(6-methyl-2,6-diazaspiro[3.3]heptan-2-yl)-3-pyridyl]piperazin-1-yl]methyl]morpholin-4-yl]pyrazolo[1,5-a]pyridine-7-carbonitrile]: the IC50 in series [1] came to 6 nM. For the same compound, the inhibition at 10 min, 10 µM in series [2] is 0%. Further, the inhibition at 5 min, 10 µM in series [3] was -1%.

Regarding `C[C@@H]1CN(c2ccc(C#N)c3ncccc23)C[C@H](CN2CCN(c3ccc([C@@H]4CNCCO4)cc3)CC2)O1` [Example 19, 5-[(2R,6S)-2-methyl-6-[[4-[4-[(2R)-morpholin-2-yl]phenyl]piperazin-1-yl]methyl]morpholin-4-yl]quinoline-8-carbonitrile], the IC50 in series [1] turned out to be 25 nM. In series [2], the inhibition at 10 min, 10 µM was found to be 0.5%. In addition, the inhibition at 5 min, 10 µM in series [3] was 11.5%.

For the origin of these results see patent US20210395239A1 (Hoffmann-La Roche Inc., priority 2018, published 2021).
